pEC50: −log10 of the molar value. ≈ marks a conversion by molar mass, not a printed value.
What was measured:
[1] = Cytotoxicity against human Hep2 cells; type: cell-based, HEp-2
[2] = Aqueous solubility of the compound; type: physicochemical; settings: buffer
[3] = system: Respiratory syncytial virus; experiment: Antiviral activity against Respiratory syncytial virus B-Washington infected in human Hep2 cells after 3 days by ELISA; type: functional, organism-based; settings: HEp-2, 72 h
[4] = system: Respiratory syncytial virus; experiment: Antiviral activity against Respiratory syncytial virus A2 infected in human Hep2 cells after 3 days by ELISA; type: functional, organism-based; settings: A2, HEp-2, 72 h
[5] = system: Respiratory syncytial virus; experiment: Antiviral activity against Respiratory syncytial virus A2 infected in hamster BHK21 cells after 2 days by luciferase reporter gene assay; type: functional, organism-based; settings: human respiratory syncytial virus, A2, BHK-21, 48 h
[6] = Cytotoxicity against hamster BHK21 cells; type: cell-based, Mesocricetus auratus, BHK-21
[7] = Absorption half life in rat lungs at 10 ug/kg administered intratracheally as solution; type: ADME, tissue-based; settings: lung, inhaled or intranasal, 0.01 mg/kg, read-out: t1/2abs

Row | Structure (SMILES) | solubility [2] | pEC50 [3] | pEC50 [4] | pEC50 [5] | half-life [7] | CC50 [1] | CC50 [6]
1 | O=C(NC1CC1)c1cc2c(s1)-c1ccccc1N(C(=O)c1ccc(NC(=O)c3cccnc3N3CCCC3)nc1)CC2 | 3 µM (≈ 1.74 µg/mL) | < 4.30 | < 4.30 | < 4.30 | – | – | > 50 µM
2 | O=C(NC1CC1)c1cc2c(s1)-c1ccccc1N(C(=O)[C@H]1CC[C@H](NC(=O)c3cccnc3N3CCCC3)CC1)CC2 | 11 µM (≈ 6.42 µg/mL) | – | – | < 4.30 | – | – | > 50 µM
3 | O=C(NC1CC1)c1cc2c(s1)-c1ccccc1N(C(=O)N1CCC(NC(=O)c3cccnc3N3CCCC3)CC1)CC2 | 26 µM (≈ 15.2 µg/mL) | – | – | 4.85 | – | – | > 50 µM
4 | O=C(NC1CC1)c1cc2c(s1)-c1ccccc1N(C(=O)[C@H]1C[C@@H](NC(=O)c3cccnc3N3CCCC3)C1)CC2 | 2 µM (≈ 1.11 µg/mL) | – | – | < 4.30 | – | – | > 50 µM
5 | O=C(NC1CC1)c1cc2c(s1)-c1ccccc1N(C(=O)[C@H]1C[C@H](NC(=O)c3cccnc3N3CCCC3)C1)CC2 | 3 µM (≈ 1.67 µg/mL) | – | – | 4.80 | – | – | > 50 µM
6 | O=C(NC1CC1)c1cc2c(s1)-c1cnccc1N(C(=O)c1ccc(NC(=O)c3cccnc3N3CCCC3)cc1)CC2 | 1 µM (≈ 0.579 µg/mL) | < 4.30 | 5.96 | 5.66 | – | – | > 50 µM
7 | O=C(NC1CC1)c1cc2c(s1)-c1cccnc1N(C(=O)c1ccc(NC(=O)c3cccnc3N3CCCC3)cc1)CC2 | 10 µM (≈ 5.79 µg/mL) | < 4.30 | 5.11 | 5.07 | – | – | > 50 µM
8 | O=C(NC1CC1)c1cc2n(n1)CCN(C(=O)c1ccc(NC(=O)c3cccnc3N3CCCC3)cc1)c1ccccc1-2 | 32 µM (≈ 18 µg/mL) | 4.30 | 4.70 | 5.05 | – | – | > 50 µM
9 | O=C(NC1CC1)c1cn2c(n1)-c1ccccc1N(C(=O)c1ccc(NC(=O)c3cccnc3N3CCCC3)cc1)CC2 | 121 µM (≈ 68 µg/mL) | 4.30 | 4.30 | 4.66 | – | – | > 50 µM
10 | O=C(NC1CC1)c1cc2c(s1)-c1ccccc1N(C(=O)c1ccc(NC(=O)c3cccnc3N3CCOCC3)cc1)CC2 | 36 µM (≈ 21.4 µg/mL) | 4.77 | 6.64 | 6.20 | – | > 50 µM | –
11 | O=C(NC1CC1)c1cc2c(s1)-c1ccccc1N(C(=O)c1ccc(NC(=O)c3cccnc3N3CCN(CCO)CC3)cc1)CC2 | 40 µM (≈ 25.5 µg/mL) | < 4.30 | 5.10 | 4.89 | – | > 50 µM | –
12 | O=C(NC1CC1)c1cc2c(s1)-c1ccccc1N(C(=O)c1ccc(NC(=O)c3cccnc3N3CC[S+]([O-])CC3)cc1)CC2 | 26 µM (≈ 16.3 µg/mL) | < 4.30 | 5.02 | 4.92 | – | > 50 µM | –
13 | O=C(NC1CC1)c1cc2c(s1)-c1ccccc1N(C(=O)c1ccc(NC(=O)c3cccnc3N3CCS(=O)(=O)CC3)cc1)CC2 | 4 µM (≈ 2.57 µg/mL) | < 4.30 | 5.66 | 5.44 | – | > 50 µM | –
14 | CN(C)CC1(O)CN(c2ncccc2C(=O)Nc2ccc(C(=O)N3CCc4cc(C(=O)NC5CC5)sc4-c4ccccc43)cc2)C1 | > 100 µM | < 4.30 | < 4.30 | < 4.30 | – | > 50 µM | –
15 | CN1CC2(CCN(c3ncccc3C(=O)Nc3ccc(C(=O)N4CCc5cc(C(=O)NC6CC6)sc5-c5ccccc54)cc3)CC2)C1 | 55 µM (≈ 35.6 µg/mL) | 4.77 | 4.47 | 5.07 | – | 34 µM | –
16 | CC(=O)N1CC2(CCN(c3ncccc3C(=O)Nc3ccc(C(=O)N4CCc5cc(C(=O)NC6CC6)sc5-c5ccccc54)cc3)CC2)C1 | 4 µM (≈ 2.7 µg/mL) | 4.41 | 5.28 | 5.05 | – | 34 µM | –
17 | O=C(NC1CC1)c1cc2c(s1)-c1ccccc1N(C(=O)c1ccc(NC(=O)c3cccnc3N3CCCC3)cn1)CC2 | 3 µM (≈ 1.74 µg/mL) | < 4.30 | 5.62 | 5.43 | – | – | > 50 µM

Compounds with a higher pEC50 [5], results first:

Row | solubility [2] | pEC50 [3] | pEC50 [4] | pEC50 [5] | half-life [7] | Structure (SMILES) | CC50 [1] | CC50 [6]
18 | < 1 µM | 5.66 | 7.52 | 7.40 | – | O=C(NC1CC1)c1cc2c(s1)-c1ccccc1N(C(=O)c1ccc(NC(=O)c3cccnc3N3CCC4(CCOCC4)CC3)cc1)CC2 | > 50 µM | –
19 | < 1 µM | 6.30 | 8.00 | > 8.15 | – | O=C(NC1CC1)c1cc2c(s1)-c1ccccc1N(C(=O)c1ccc(NC(=O)c3cccnc3N3CC4(CCOCC4)C3)cc1)CC2 | > 50 µM | –
20 | < 1 µM | 5.29 | > 6.68 | 6.80 | – | O=C(NC1CC1)c1cc2c(s1)-c1ccccc1N(C(=O)c1ccc(NC(=O)c3ccncc3N3CCC4(CC3)COC4)cc1)CC2 | 4.8 µM | –
21 | 9 µM (≈ 5.7 µg/mL) | 4.85 | 6.17 | 6.24 | – | O=C(NC1CC1)c1cc2c(s1)-c1ccccc1N(C(=O)c1ccc(NC(=O)c3cnccc3N3CCC4(CC3)COC4)cc1)CC2 | 34 µM | –
22 | < 1 µM | 4.31 | 6.33 | 6.46 | – | O=C(NC1CC1)c1cc2c(s1)-c1ccccc1N(C(=O)c1ccc(NC(=O)c3ncccc3N3CCC4(CC3)COC4)cc1)CC2 | 43 µM | –
23 | < 1 µM | < 4.30 | > 6.68 | 6.72 | – | O=C(NC1CC1)c1cc2c(s1)-c1ccccc1N(C(=O)c1ccc(NC(=O)c3ccccc3N3CCC4(CC3)COC4)cc1)CC2 | > 50 µM | –
24 | < 1 µM | 5.74 | > 6.68 | 7.70 | – | COc1ccc(C(=O)Nc2ccc(C(=O)N3CCc4cc(C(=O)NC5CC5)sc4-c4ccccc43)cc2)c(N2CCC3(CC2)COC3)n1 | > 50 µM | –
25 | 2 µM (≈ 1.27 µg/mL) | 6.00 | 8.00 | 8.00 | < 1 min | O=C(NC1CC1)c1cc2c(s1)-c1ccccc1N(C(=O)c1ccc(NC(=O)c3cccnc3N3CCC4(CC3)COC4)cc1)CC2 | > 50 µM | –
26 | < 1 µM | < 4.30 | 6.82 | 6.51 | – | O=C(NC1CC1)c1cc2c(s1)-c1ccccc1N(C(=O)c1ccc(NC(=O)c3cccnc3N3CCCC3)cc1)CC2 | > 50 µM | > 50 µM

Reference: ChEMBL document CHEMBL3091401, “Discovery of a potent respiratory syncytial virus RNA polymerase inhibitor” (Bioorg Med Chem Lett, 2013)
